Series [1] deals with membrane associated Ras in HepG2 cells. The series is described as follows: Membrane associated Ras in HepG2 cells (immunoblot). In kind it is cell-based, human. Conditions: HepG2, 24 h. As to the method: Cultured HCC cells and primary hepatocytes were washed with PBS buffer, treated with 0.25% Trypsin-EDTA solution (Corning) and precipitated at 1,000 rpm for 5 min. For protein extraction, HCC cells were lysed on ice by vortexing every 5 min for 30 min in RIPA buffer containing 20 mM Tris-HCl (pH 7.5), 150 mM NaCl, 5 mM EDTA, 1% Triton X-100, 0.5% sodium deoxycholate, 0.1% SDS, and 1× Halt protease inhibitor cocktail (Thermo Scientific, Waltham, Mass.). Prenylated Ras other membrane associated proteins were extracted from HCC cells using a Mem-PER Plus Kit (Thermo Scientific) according to the manufacturer's protocol. […]
HepG2 cells were seeded in 6-well plates at a density 250,000 cells per well. […] 24 h later cells were collected, washed with PBS and the membrane associated Ras proteins were extracted as described above, resolved on SDS-PAGE, and detected with the anti-Ras antibody (EMD Millipore).
To study the effect of AA3 suppression on Ras membrane association, HepG2 and HuH7 cells seeded onto 6-well plates at the same density, were transfected with 50 pmol ACY3 (AA3) Silencer Select Pre-designed siRNA (Invitrogen, Grand Island, N.Y.) using the Lipofectamine RNAiMAX reagent (Invitrogen) following the manufacturer protocol. […] After 48 h incubation, membrane associated proteins were extracted and membrane associated Ras was determined by immunoblotting as described above.
In general terms: In western blotting, separated proteins are transferred to a membrane and probed.

Series [2] concerns colon cancer cell lines COLO 205, HCT 116, LS 513. Kind of series: MTT cell viability, colon cancer cell lines. In kind it is cell-based, human. Conditions: lines expressing wild type (wt) or mutant (mut) KRas. An excerpt:
(§1) Human colon cancer cell lines COLO 205, HCT 116, LS 513 (all ATCC), primary colon epithelial cells (Cell Biologics), pancreatic cancer cell lines PANC-1, MIA PaCa-2, BxPC-3, and normal pancreatic duct epithelial cells (UCLA collection) were used in experiments. COLO 205, LS 513, BxPC-3 cells were cultivated in RPMI 1640 medium with 10% FBS, HCT 116 cells were cultivated in McCoy's 5A medium with 10% FBS, PANC-1 and MIA PaCa-2 cell lines were cultivated in DMEM medium with 10% FBS, and normal colon and pancreatic cells were maintained in Human Epithelial Cell Medium (Cell Biologics).
(§2) HCC cell lines HepG2, HuH7, primary hepatocytes, colon cell lines COLO 205, HCT 116, LS 513, primary colon epithelial cells, pancreatic cancer cell lines PANC-1, MIA PaCa-2, BxPC-3, and normal pancreatic duct epithelial cells were seeded in 96-well plates at a density 10,000 cells per well in complete medium. Next day medium was changed to medium containing 1% FBS and an AA3 inhibitor (3-100 μM). 24 h later cell viability was determined using the MTT (3-(4,5-dimethylthiazol-2-yl)-2,5-diphenyltetrazolium bromide) cell viability assay. Cells were incubated during 4 h at 37° C. with 150 μl fresh media containing 0.5 mg/ml MTT. Then 50 μl of 20% SDS in 25 mM HCl was added to each well, incubated for 4 h and the optical density at 570 nm was measured on a VMax Kinetic Microplate Reader (Molecular Devices, Sunnyvale, Calif.).

The subject of series [3] is HuH7 cells. Kind of series: MTT cell viability, HuH7. The format is cell-based, human. Conditions: HuH7, within the micromolar range, 24 h. As to the method: as §2
(§3) To study the effect of AA3 silencing, HepG2 and HUH7 cells seeded in 96-well plates were transfected with 2 pmol AA3 siRNA using the Lipofectamine RNAiMAX reagent as per the manufacturer protocol. Cell viability was measured in the MTT assay 48 h later as described.

For series [4], the system named is primary colon epithelial cells. The series is described as follows: MTT cell viability, normal colon cells. In kind it is cell-based, human. Conditions: colon (FIG. 24).
Description: as §1
as §2, with “Cells were incubated during 4 h at 37° C. with 150 μl fresh media containing 0.5 mg/ml MTT.” left out

Series [5] concerns normal primary hepatocytes. Kind of series: MTT cell viability, normal primary hepatocytes. To be noted: inhibitor 10: 0-50 μM range; inhibitor 11: in comparison with HCC cell lines. In kind it is cell-based. Here is the method:
as §2, §3

The subject of series [6] is pancreatic cancer cell lines PANC-1, MIA PaCa-2, BxPC-3. The series is described as follows: MTT cell viability, pancreatic cancer cell lines. The format is cell-based, human.
Description: as §1, §2

The test system of series [7] is HepG2 cells. The series is described as follows: MTT cell viability, HepG2. In kind it is cell-based, human. To be noted: HepG2, within the micromolar range, 24 h. As to the method: as §2, §3
For series [8], the system named is HuH7 cells. The series is described as follows: Levels of FC and NAFC in HuH7 cells (LC/MS). In kind it is cell-based, human. Here is the method:
(§4) HUH7 and HepG2 cells were seeded in 6-well plates at a density 250,000 cells per well in complete medium. Next day the medium was changed to 2 ml DMEM with 1% FBS containing a 10-20 μM AA3 inhibitor. After 24 h incubation, the medium was collected, concentrated 10 times on a vacuum concentrator; 10 μl aliquots were used for quantitation by LC/MS and LC/MS/MS-MRM. The cells were trypsinized, washed in PBS and centrifuged at 2,000 g for 10 min. Then cell pellet was lysed on ice in 50 μl of 20 mM Tris-HCl, pH 7.5, containing 1% dodecyl maltoside (DDM) and 1× protease inhibitor cocktail (Sigma/Aldrich). After centrifugation (14,000 g, 10 min) the supernatants were diluted 4 times with methanol and centrifuged (14,000 g, 10 min), then the supernatants were diluted 10 times with water, and 10 μl aliquots were used for quantitation by LC/MS and LC/MS/MS-MRM as described above expect electrospray ionization was used with an Agilent 6460 triple quadrupole mass spectrometer.

Series [9] has as its system HepG2 cells. The series is described as follows: Levels of FC and NAFC in HepG2 cells (LC/MS). In kind it is cell-based, human. Here is the method: as §4
The test system of series [10] is normal pancreatic duct epithelial cells. The series is described as follows: MTT cell viability, normal pancreatic cells. In kind it is cell-based, human.
Description: as §1, §2

Substrate in series [11]: CC(=O)C/C(C)=C/CC/C(C)=C/CC/C(C)=C/CC/C(C)=C/CN[C@@H](CS)C(=O)O
The series is described as follows: Substrate kinetics of mouse AA3 (mAA3). To be noted: other: substrate of mAA3. In kind it is biochemical.

[12] abbreviates: HuH7, 10-20 μM inhibitor, 24 h, vs untreated.
[13] abbreviates: HepG2, 10-20 μM inhibitor, 24 h, vs untreated.

Turning to `O=c1nc(-c2ccccc2)sc2ccccc12` [Inhibitor 10, 2-Phenyl-4H-1,3-benzothiazin-4-one], the “level of the membrane associated Ras decreased by, % of control” value in series [1] is on record as roughly 50%. Besides, in [2], the “growth of colon cancer cell lines” value is on record as “suppress growth”. Moreover, the “toxicity (cell viability)” value in series [3] and in series [7] was “toxic” in each case. For the same molecule, the “toxicity for normal vs cancer cell lines” value in series [4] and in series [10] (pancreatic (FIG. 25)) was “significantly less toxic” throughout. The “toxicity to normal primary hepatocytes” value in [5] is on record as “not toxic”. Besides, the “toxicity for pancreatic cancer cells” value in series [6] is “toxic”. In series [6] (lines expressing either wild type (wt) or mutant (mut) KRas), the “efficiency for pancreatic cell lines” value is “efficient”. Further, the “FC level decreased by” value in [8] (setting [12]) is “approximately 50%”. Besides, the “level of NAFC” value in series [8] (setting [12]) and in [9] (setting [13]) was “significantly increased” each time. Further, the “[FC]/[NAFC] ratio” value in series [8] (HuH7 treated cells (untreated ~2.8)) was roughly 0.85; in [9] (HepG2 treated cells (untreated ~8.4)), roughly 1.6. Also, the FC level result in series [9] (setting [13]) was “not significantly changed”. Also, the “toxicity for pancreatic normal cells” value in series [10] is reported as “toxic”.

B1: mAA3 (Mus musculus) (protein)
chain: MSSLPGSREPLLRVAVTGGTHGNEMCGVYLARYWLQNPGELQRPSFSAMPVLANPAATAACCRYLDRDLNRSCTLTFLGSTATPDDPYEVKRARELNQLLGPKGTGQAFDFTLDLHNTTANTGVCLISESNISFNLHLCHYLQRQNPGMPCRLFLYEPAGTETFSVESISKNGICLEMGPQPQGVLRADLFSRMRALVASILDFIELFNQGMDLPAFEMDIYRNLGSVDFPRTADGDLAGTVHPQLQDHDFEPLRPGEPIFKLFSGEDVLYEGDSIVYPVFINEAAYYEKHVAFLKSEKIRVTVPALLRLTPRSTQTP
Consider B1, for which the Km – broadly, the substrate concentration at which the rate is half of its maximum – in series [11] amounted to 25 µM.
